ChEMBL document CHEMBL1157221, “14,15-secopregnane derivatives from the leaves of Solenostemma argel” (J Nat Prod, 2006)
Calls of active or inactive are those of the source. No cut-off for these calls is given here.

tested on: RAW264.7; experiment: Antiinflammatory activity against mouse RAW264.7 cells assessed as stimulation LPS-induced TNFalpha release at 100 uM pretreated for 30 mins before LPS challenge by ELISA; format: functional, cell-based

SMILES	Activity
CO[C@@H]1[C@@H](O)[C@H](O[C@@H]2[C@@H](C)O[C@@H](O[C@H]3[C@@H](OC)C[C@H](O[C@H]4[C@H](O)C[C@H](O[C@H]5CC[C@@]6(C)C(=CC[C@@H]7[C@@H]6CC[C@]6(C)[C@@H]8[C@H]9CO[C@@]8(C)O[C@@]76O9)C5)O[C@@H]4C)O[C@@H]3C)C[C@H]2OC)O[C@H](C)[C@H]1O[C@@H]1O[C@H](CO)[C@@H](O)[C@H](O)[C@H]1O	Active
COC(=O)C[C@H](O[C@H]1CC[C@@]2(C)C(=CC[C@@H]3[C@@H]2CC[C@]2(C)[C@@H]4[C@H]5CO[C@@]4(C)O[C@@]32O5)C1)O[C@H](C)C(=O)O	inactive
CO[C@@H]1[C@@H](O)[C@H](O[C@@H]2[C@@H](C)O[C@@H](O[C@H]3[C@@H](OC)C[C@H](O[C@@H]4[C@@H](C)O[C@@H](O[C@H]5CC[C@@]6(CO)C(=CC[C@@H]7[C@@H]6CC[C@]6(C)[C@@H]8[C@H]9CO[C@@]8(C)O[C@@]76O9)C5)C[C@H]4OC)O[C@@H]3C)C[C@H]2OC)O[C@H](C)[C@H]1O[C@@H]1O[C@H](CO)[C@@H](O)[C@H](O)[C@H]1O	Active
CO[C@H]1C[C@H](O[C@H]2CC[C@@]3(COC(C)=O)C(=CC[C@@H]4[C@@H]3CC[C@]3(C)[C@@H]5[C@H]6CO[C@@]5(C)O[C@@]43O6)C2)O[C@H](C)[C@H]1O[C@H]1C[C@H](OC)[C@H](O[C@H]2C[C@@H](O)[C@H](O[C@H]3C[C@@H](OC)[C@H](O[C@@H]4O[C@H](CO)[C@@H](O)[C@H](O)[C@H]4O)[C@@H](C)O3)[C@@H](C)O2)[C@@H](C)O1	Active
